Results as given in article PMC12169615, “Fluorescent 4‑Nitrobenzo-2-oxa-1,3-diazole-Coupled Bile Acids as Probe Substrates of Hepatic and Intestinal Bile Acid Transporters of the Solute Carrier Families SLC10 and SLCO” (Journal of Medicinal Chemistry, 2025).
“And” between values parts separate entries of the source, which are not always exact repeats. Equal values may be shown once.

Tests used:
mouse mAsbt [1] = target: T1, mouse mAsbt (Mus musculus, UniProt P70172); test: Quantitative uptake of 3-NBD-BA in carrier-expressing HEK293 cells (fluorescence reader); format: cell-based; parameters: stably transfected with the full open reading frames of human NTCP, ASBT, SOAT, OATP1B1, and OATP1B3 as well as mouse mNtcp and mAsbt; expressed in transfected cells; details: mAsbt-HEK293, 25 μM, 37 °C, +Na+ vs -Na+
T1 sequence (P70172 1-348): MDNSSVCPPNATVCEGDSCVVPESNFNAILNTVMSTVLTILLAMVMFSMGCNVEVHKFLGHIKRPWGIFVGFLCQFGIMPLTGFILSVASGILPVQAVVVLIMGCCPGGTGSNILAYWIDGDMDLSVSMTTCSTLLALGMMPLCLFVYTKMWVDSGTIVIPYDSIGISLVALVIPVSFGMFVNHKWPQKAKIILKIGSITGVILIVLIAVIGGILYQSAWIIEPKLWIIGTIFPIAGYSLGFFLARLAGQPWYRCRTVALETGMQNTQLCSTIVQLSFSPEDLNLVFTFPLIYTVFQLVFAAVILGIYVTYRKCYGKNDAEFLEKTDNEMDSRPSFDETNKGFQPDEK
Description: For quantification of the transport activity of the synthesized NBD-BA, all cell lines were seeded on 96 well plates and transport experiments were performed under the same control conditions (-Na^+ control for the SLC10 carriers and nontransfected HEK293 cells for the OATP carriers) as before (Figure ). For each NBD-BA, a substrate concentration of 25 μM was used, and the uptake phase was terminated after 10 min of incubation at 37 °C. […] The transport ratios ranged from 3-fold to 39-fold. In direct comparison, 3α-NBD-TCA (14d) and 3α-NBD-GCA (16d) were transported better than their 3β-analogs 3β-NBD-TCA (14a) and 3β-NBD-GCA (16a), respectively, clearly pointing to a preference for the α-position over the β-position of the 3-NBD-label. In direct comparison between the taurine- or glycine-conjugation of the respective NBD-BA, there was a clear preference for 3α-NBD-GCA (16d) over 3α-NBD-TCA (14d), at least for NTCP and mAsbt, pointing to a favorable substrate recognition for glycine-conjugated NBD-BA.
5 Quantitative uptake experiments with the 3-NBD-BA in HEK293 cells stably expressing the human carriers NTCP, ASBT, SOAT, OATP1B1, and OATP1B3, or the mouse carriers mNtcp and mAsbt. For the SLC10 carriers, all transport experiments were performed in the presence (filled bars) and the absence (hatched bars) of sodium. For the OATP carriers, uptake into carrier-expressing cells (filled bars) was compared to uptake into non-carrier-expressing HEK293 cells (hatched bars). All cell lines were incubated at 37 °C for 10 min with the indicated 3-NBD-BA at 25 μM. Then, cells were washed with PBS and subjected to fluorescence detection. The following fluorescent BA were analyzed: 3α-NBD-TCA (14d), 3β-NBD-TCA (14a), 3α-NBD-GCA (16d), 3β-NBD-GCA (16a), 3β-NBD-TCDCA (14b), 3β-NBD-CDCA (6b), 3β-NBD-DCA (6c), 3α-NBD-CA (6d), and 3β-NBD-CA (6a). Data represent means ± SD of triplicate determinations of representative experiments. […] RFU, relative fluorescence units. TEXT PRINTED IN THE PICTURE: 3α-NBD-TCA (14d): NTCP: 9 X; mNtcp: 30 X; ASBT: 2 X; mAsbt: 14 X | 3ß-NBD-TCA (14a): NTCP: 12 X; mNtcp: 20 X; mAsbt: 18 X | 3α-NBD-GCA (16d): NTCP: 27 X; mNtcp: 26 X; ASBT: 3 X; mAsbt: 39 X | 3ß-NBD-GCA (16a): NTCP: 15 X; mNtcp: 14 X; mAsbt: 5 X | 3ß-NBD-TCDCA (14b): NTCP: 5 X; mNtcp: 3 X; mAsbt: 4 X | 3ß-NBD-CDCA (6b): mNtcp: < 2 X; ASBT: < 2 X; mAsbt: < 2 X; OATP1B1: < 2 X; OATP1B3: < 2 X | 3ß-NBD-DCA (6c): mNtcp: < 2 X; ASBT: < 2 X; mAsbt: < 2 X | 3α-NBD-CA (6d): mNtcp: 2 X; mAsbt: 4 X | 3ß-NBD-CA (6a): NTCP: 2 X; mNtcp: 2 X; mAsbt: 2 X DOUBTS OF THE COPYIST ABOUT THIS PICTURE: The picture prints no panel letters, so the chart titles (NTCP, mNtcp, ASBT, mAsbt, OATP1B1, OATP1B3) are written in front of the values as the target. / Substance labels: the sign after '3' is printed like 'ß' and may be meant as 'β'. / The 'ns' marks and significance asterisks were left out as statistics. The SOAT chart prints only 'ns'.

mouse mAsbt [2] = target: T1, mouse mAsbt; test: Transport kinetics of conjugated 3-NBD-BA (concentration-dependent uptake); format: cell-based; parameters: stably transfected with the full open reading frames of human NTCP, ASBT, SOAT, OATP1B1, and OATP1B3 as well as mouse mNtcp and mAsbt; expressed in transfected cells; details: mAsbt-HEK293, 10 min uptake, 37 °C, specific (Na+-dependent) uptake
Description: In a first step, the time-dependent transport of all conjugated NBD-BA was analyzed. […] Based on these findings, an uptake phase of 10 min was selected as the most practical for subsequent kinetic transport measurements. […] In contrast, for ASBT, reliable carrier-specific concentration-dependent transport rates and K m values could only be determined for 3α-NBD-GCA (16d). The transport rates for 3β-NBD-TCA (14a), 3β-NBD-TCDCA (14b), 3β-NBD-GCA (16a), and 3α-NBD-TCA (14d) were at ≤ 2 across the entire concentration range and were therefore not considered biologically meaningful.
7 ASBT and mAsbt transport kinetics for conjugated 3-NBD-BA. Concentration-dependent uptake of the indicated NBD-coupled BA was analyzed in HEK293 cells stably expressing human ASBT or mouse mAsbt at increasing substrate concentrations. Control experiments were performed in the absence of sodium (-Na^+). Uptake was analyzed for 10 min at 37 °C with transport buffer containing the indicated 3-NBD-BA. Afterward, the transport medium was removed, and each cell monolayer was washed and processed for fluorescence detection. Specific uptake was calculated by subtracting the nonspecific uptake in the absence of sodium (-Na^+, open symbols) from the uptake in the presence of sodium (+Na^+, closed symbols) and is shown by dotted lines. Values represent means ± SD of quadruplicate determinations. Michaelis Menten K m values were calculated by nonlinear regression analysis based on the specific uptake data. For ASBT, reliable specific uptake data could only be determined for 3α-NBD-GCA (16d).

| Molecule | Specific transport ratio mAsbt (25µM/10 min uptake) (mouse mAsbt [1]) | K m mAsbt (mouse mAsbt [2]) |
| --- | --- | --- |
| C[C@H](CCC(=O)NCCS(=O)(=O)[O-])[C@H]1CC[C@H]2[C@@H]3[C@H](O)C[C@@H]4C[C@@H](Nc5ccc([N+](=O)[O-])c6nonc56)CC[C@]4(C)[C@H]3C[C@H](O)[C@]12C.[Na+] [14a] | 18x x-fold | 20.0 µM and 20 µM |
| 12α-Hydroxy-3β-[(7-nitro-2,1,3-benzoxadiazol-4-yl)amino]-5β-cholan-24-oate [6c] | <2x x-fold |  |
| C[C@H](CCC(=O)O)[C@H]1CC[C@H]2[C@@H]3[C@H](O)C[C@@H]4C[C@H](Nc5ccc([N+](=O)[O-])c6nonc56)CC[C@]4(C)[C@H]3C[C@H](O)[C@]12C [6d, 7α,12α-Dihydroxy-3α-[(7-nitro-2,1,3-benzoxadiazol-4-yl)amino]-5β-cholan-24-oate] | 4 x-fold and 4x x-fold |  |
| C[C@H](CCC(=O)NCC(=O)O)[C@H]1CC[C@H]2[C@@H]3[C@H](O)C[C@@H]4C[C@@H](Nc5ccc([N+](=O)[O-])c6nonc56)CC[C@]4(C)[C@H]3C[C@H](O)[C@]12C [16a] | 5x x-fold | 3.5 µM |
| C[C@H](CCC(=O)NCC(=O)O)[C@H]1CC[C@H]2[C@@H]3[C@H](O)C[C@@H]4C[C@H](Nc5ccc([N+](=O)[O-])c6nonc56)CC[C@]4(C)[C@H]3C[C@H](O)[C@]12C [16d] | 39x x-fold | 14.5 µM |
| C[C@H](CCC(=O)NCCS(=O)(=O)[O-])[C@H]1CC[C@H]2[C@@H]3[C@H](O)C[C@@H]4C[C@H](Nc5ccc([N+](=O)[O-])c6nonc56)CC[C@]4(C)[C@H]3C[C@H](O)[C@]12C.[Na+] [14d] | 14x x-fold | 11.1 µM |
| C[C@H](CCC(=O)O)[C@H]1CC[C@H]2[C@@H]3[C@H](O)C[C@@H]4C[C@@H](Nc5ccc([N+](=O)[O-])c6nonc56)CC[C@]4(C)[C@H]3C[C@H](O)[C@]12C [6a, 7α,12α-Dihydroxy-3β-[(7-nitro-2,1,3-benzoxadiazol-4-yl)amino]-5β-cholan-24-oate] | 2 x-fold and 2x x-fold |  |
| 7α-Hydroxy-3β-[(7-nitro-2,1,3-benzoxadiazol-4-yl)amino]-5β-cholan-24-oate [6b] | <2x x-fold |  |
